Results as given in patent publication US8952024B2, “Herbicidal pyrimidone derivatives” (E I du Pont de Nemours and Company, priority 2009, dated 2015).

Key:
Assay type in all cases: in vivo
[1] = system: large crabgrass (Digitaria sanguinalis); experiment: Test A pre-/postemergence plant response
In short: (§1)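 Formulated test chemicals (non-phytotoxic solvent, surfactant) were sprayed onto soil right after planting and simultaneously onto young plants at one to two leaves, 2 to 10 cm tall. Plants stayed in the greenhouse about ten days; injury was then visually scored against untreated controls, from 0 (no effect) to 100 (complete control).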

[2] = system: giant foxtail (Setaria faberii); experiment: Test A pre-/postemergence plant response
In short: as §1

[3] = system: morningglory (Ipomoea spp.); experiment: Test A pre-/postemergence plant response
In short: as §1

[4] = system: pigweed (Amaranthus retroflexus); experiment: Test A pre-/postemergence plant response
In short: as §1

[5] = system: velvetleaf (Abutilon theophrasti); experiment: Test A pre-/postemergence plant response
In short: as §1

[6] = system: wheat (Triticum aestivum); experiment: Test A pre-/postemergence plant response
In short: as §1

corn (Zea mays) = experiment: Test A pre-/postemergence plant response
In short: as §1

[7] = system: barnyardgrass (Echinochloa crus-galli); experiment: Test A pre-/postemergence plant response
In short: as §1

[8] = system: windgrass (Apera spica-venti); experiment: Test B postemergence plant response; conditions: for Windgrass plant response rating (0 to 100 scale): 62 g ai/ha, postemergence, 0 is no effect, 100 is complete control, 13 to 15 days; for Plant response rating, Windgrass: Postemergence
In short: (§2)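 Plants at the 1- to 4-leaf stage (2 to 18 cm tall), grown in pots of peat moss/vermiculite medium with wetting agent and starter nutrients, received postemergence applications of test chemicals. After 13 to 15 days in a greenhouse, injury was rated visually against untreated controls on a 0 (no effect) to 100 (complete control) scale.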

[9] = system: canarygrass (Phalaris minor); experiment: Test B postemergence plant response; conditions: for Canarygrass plant response rating (0 to 100 scale): 62 g ai/ha, 0 is no effect, 13 to 15 days
In short: as §2

[10] = system: winter barley (Hordeum vulgare); experiment: Test B postemergence plant response; conditions: for Barley plant response rating (0 to 100 scale): 62 g ai/ha, 0 is no effect, 13 to 15 days
In short: as §2

[11] = system: chickweed (Stellaria media); experiment: Test B postemergence plant response; conditions: for Chickweed plant response rating (0 to 100 scale): 62 g ai/ha, 0 is no effect, 13 to 15 days
In short: as §2

[12] = Postemergence, 125 g ai/ha, 0 to 100 scale where 0 is no effect and 100 is complete control
[13] = Postemergence, 500 g ai/ha, 0 to 100 scale, 0 = no effect, 100 = complete control, approx. ten days
[14] = Preemergence, 125 g ai/ha, 0 to 100 scale, 0 = no effect, 100 = complete control
[15] = Preemergence, 500 g ai/ha, visual injury, 0 to 100 scale (0 no effect, 100 complete control), approx. ten days
[16] = 125 g ai/ha, scale 0 to 100 (0 no effect, 100 complete control)
[17] = 31 g ai/ha, postemergence, scale 0 to 100, 0 is no effect, 100 is complete control
[18] = postemergence, 100 is complete control
[19] = Postemergence, 125 g ai/ha, scale 0 to 100 (0 no effect, 100 complete control)
[20] = Postemergence, 250 g ai/ha, scale 0 to 100 (0 no effect, 100 complete control)
[21] = Postemergence, 31 g ai/ha, 0 to 100 scale (0 no effect, 100 complete control)

In the case of CCCCn1c(-c2cc(F)cc(F)c2)ncc(C(=O)C2=C(O)CCCC2=O)c1=O [Compound 121], the “Plant response rating, Crabgrass, Large” value [1, 12] was 80, the “Plant response rating, Crabgrass, Large” value [1, 13] was 100 and the “Plant response rating, Crabgrass, Large” value [1, 14] was 90. For the same compound, the “Plant response rating, Crabgrass, Large” value [1, 15] was 100, the “Plant response rating, Foxtail, Giant” value [2, 12] was 90 and the “Plant response rating, Foxtail, Giant” value [2, 13] was 90. For the same compound, the “Plant response rating, Foxtail, Giant” value [2, 14] was 80, the “Plant response rating, Foxtail, Giant” value [2, 15] was 100 and the “Plant response rating, Morningglory” value [3, 12] was 100. For the same compound, the “Plant response rating, Morningglory” value [3, 13] was 100, the “Plant response rating, Morningglory” value [3, 14] was 0 and the “Plant response rating, Morningglory” value [3, 15] was 70. For the same compound, the “Plant response rating, Pigweed” value [4, 12] was 100, the “Plant response rating, Pigweed” value [4, 13] was 100 and the “Plant response rating, Pigweed” value [4, 14] was 80. For the same compound, the “Plant response rating, Pigweed” value [4, 15] was 100, the “Plant response rating, Velvetleaf” value [5, 12] was 100 and the “Plant response rating, Velvetleaf” value [5, 13] was 100. The “Plant response rating, Velvetleaf” value [5, 14] was 80, the “Plant response rating, Velvetleaf” value [5, 15] was 100 and the “Plant response rating, Wheat” value [6, 12] was 30. For the same compound, the “Plant response rating, Wheat” value [6, 13] was 60, the “Plant response rating, Wheat” value [6, 14] was 0 and the “Plant response rating, Wheat” value [6, 15] was 50. For the same compound, the “Plant response rating, Corn” value (corn (Zea mays); [12]) was 0, the “Plant response rating, Corn” value (corn (Zea mays); [13]) was 40 and the “Plant response rating, Corn” value (corn (Zea mays); [14]) was 0. For the same compound, the “Plant response rating, Corn” value (corn (Zea mays); [15]) was 30, the “Plant response rating, Barnyardgrass” value [7, 12] was 80 and the “Plant response rating, Barnyardgrass” value [7, 13] was 100. For the same compound, the “Plant response rating, Barnyardgrass” value [7, 14] was 20, the “Plant response rating, Barnyardgrass” value [7, 15] was 100 and the “Windgrass plant response rating (0 to 100 scale)” value [8] was 98. The “Plant response rating, Windgrass” value [8, 16] was 100, the “Plant response rating, Canarygrass” value [9, 17] was 0 and the “Canarygrass plant response rating (0 to 100 scale)” value [9, 18] was 5. For the same compound, the “Plant response rating, Canarygrass” value [9, 19] was 5, the “Plant response rating, Canarygrass” value [9, 20] was 30 and the “Plant response rating, Barley” value [10, 17] was 0. For the same compound, the “Barley plant response rating (0 to 100 scale)” value [10, 18] was 5, the “Plant response rating, Barley” value [10, 19] was 5 and the “Plant response rating, Barley” value [10, 20] was 10. For the same compound, the “Plant response rating, Chickweed” value [11, 17] was 100, the “Chickweed plant response rating (0 to 100 scale)” value [11, 18] was 100 and the “Plant response rating, Chickweed” value [11, 19] was 100. The “Plant response rating, Chickweed” value [11, 20] was 100.

With COCCn1c(-c2cccc(F)c2)ncc(C(=O)C2=C(O)CCCC2=O)c1=O [Compound 123] the “Plant response rating, Crabgrass, Large” value [1, 12] was 80, the “Plant response rating, Crabgrass, Large” value [1, 13] was 90 and the “Plant response rating, Crabgrass, Large” value [1, 14] was 100. For the same compound, the “Plant response rating, Crabgrass, Large” value [1, 15] was 100, the “Plant response rating, Foxtail, Giant” value [2, 12] was 70 and the “Plant response rating, Foxtail, Giant” value [2, 13] was 80. For the same compound, the “Plant response rating, Foxtail, Giant” value [2, 14] was 50, the “Plant response rating, Foxtail, Giant” value [2, 15] was 100 and the “Plant response rating, Morningglory” value [3, 12] was 100. The “Plant response rating, Morningglory” value [3, 13] was 100, the “Plant response rating, Morningglory” value [3, 14] was 70 and the “Plant response rating, Pigweed” value [4, 12] was 100. For the same compound, the “Plant response rating, Pigweed” value [4, 13] was 100, the “Plant response rating, Pigweed” value [4, 14] was 90 and the “Plant response rating, Pigweed” value [4, 15] was 100. The “Plant response rating, Velvetleaf” value [5, 12] was 100, the “Plant response rating, Velvetleaf” value [5, 13] was 100 and the “Plant response rating, Velvetleaf” value [5, 14] was 70. For the same compound, the “Plant response rating, Velvetleaf” value [5, 15] was 100, the “Plant response rating, Wheat” value [6, 12] was 0 and the “Plant response rating, Wheat” value [6, 13] was 20. The “Plant response rating, Wheat” value [6, 14] was 0, the “Plant response rating, Wheat” value [6, 15] was 20 and the “Plant response rating, Corn” value (corn (Zea mays); [12]) was 20. The “Plant response rating, Corn” value (corn (Zea mays); [13]) was 70, the “Plant response rating, Corn” value (corn (Zea mays); [14]) was 0 and the “Plant response rating, Corn” value (corn (Zea mays); [15]) was 30. The “Plant response rating, Barnyardgrass” value [7, 12] was 80, the “Plant response rating, Barnyardgrass” value [7, 13] was 90 and the “Plant response rating, Barnyardgrass” value [7, 14] was 50. The “Plant response rating, Barnyardgrass” value [7, 15] was 100, the “Windgrass plant response rating (0 to 100 scale)” value [8] was 60 and the “Plant response rating, Windgrass” value ([8]; 31 g ai/ha, 0 to 100 scale (0 no effect, 100 complete control)) was 30. For the same compound, the “Plant response rating, Windgrass” value [8, 16] was 80, the “Canarygrass plant response rating (0 to 100 scale)” value [9, 18] was 40 and the “Plant response rating, Canarygrass” value [9, 21] was 25. For the same compound, the “Plant response rating, Canarygrass” value [9, 19] was 55, the “Plant response rating, Canarygrass” value [9, 20] was 85 and the “Barley plant response rating (0 to 100 scale)” value [10, 18] was 10. The “Plant response rating, Barley” value [10, 21] was 5, the “Plant response rating, Barley” value [10, 19] was 25 and the “Plant response rating, Barley” value [10, 20] was 50. For the same compound, the “Chickweed plant response rating (0 to 100 scale)” value [11, 18] was 75, the “Plant response rating, Chickweed” value [11, 21] was 70 and the “Plant response rating, Chickweed” value [11, 19] was 95. For the same compound, the “Plant response rating, Chickweed” value [11, 20] was 100.
